# Literature values in patent US7910108B2, “Sheddase inhibitors combined with CD30-binding immunotherapeutics for the treatment of CD30 positive diseases” (Incyte Corporation, priority 2006, dated 2011).
# Where two headings read alike, the source gives them in different places.
# Key:
# [1] = system: CD30; conditions: in vitro; combined with anti-CD30 immunotoxins
# [2] = system: CD30; conditions: in vivo, rodent; administered concomitantly with anti-CD30 immunotoxins
smiles,measurement,setting,value
CO[C@H](C(=O)NO)[C@@H](CC(C)C)C(=O)N[C@H](C(=O)Nc1ccccn1)C(C)(C)C [BB-3644],effectiveness of combination versus immunotoxin alone,[1],substantially more effective
same,effectiveness of combination versus immunotoxin alone,[2],substantially more effective
